Assay results reported in patent US11021457B2, “Class of isoindolone-imide ring-1,3-dione-2-ene compounds, composition and use thereof” (WIGEN BIOMEDICINE TECHNOLOGY (SHANGHAI) CO., LTD., priority 2017, dated 2021).
Read-outs that look alike come from different tables or passages of the source.

Assays:
LC3B = LC3B (Homo sapiens (Human), UniProt Q9GZQ8); experiment: Fluorescence polarization experiment targeting LC3B (GST-LC3B with FITC-labeled peptide)
MDA-MB-453 = experiment: Inhibition of tumor cell proliferation, CellTiter-Glo, MDA-MB-453; format: cell-based; conditions: compound concentration 50 μM, 72 hours; for cell survival rate (%) at 50 µM: Homo sapiens, MDA-MB-453, read-out: Inhibitory activity against proliferation (cell survival rate) MDA-MB-453
How it was run: (§1)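 Cells seeded at 2000-10000 per well, treated immediately (suspension) or after adherence (adherent) and cultured at 37° C, 5% CO2. Viability read by CellTiter-Glo at 72 h as blank-corrected survival rate vs control. Scored at 50 μM compound: survival 60-<90% +, >30-60% ++, ≤30% +++.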

BxPC-3 = experiment: Inhibition of tumor cell proliferation, CellTiter-Glo, BxPC-3; format: cell-based; conditions: compound concentration 50 μM, 72 hours; for cell survival rate (%) at 50 µM: Homo sapiens, BXPC-3, read-out: Inhibitory activity against proliferation (cell survival rate) BxPC-3
How it was run: as §1

A549 = experiment: Inhibition of tumor cell proliferation, CellTiter-Glo, A549; format: cell-based; conditions: compound concentration 50 μM, 72 hours; for cell survival rate (% of control) at 50 µM: Homo sapiens, A549, read-out: Inhibitory activity against proliferation (cell survival rate) A549
How it was run: as §1

K562 = experiment: Inhibition of tumor cell proliferation, CellTiter-Glo, K562; format: cell-based; conditions: compound concentration 50 μM, 72 hours; for cell survival rate (%) at 50 µM: Homo sapiens, K562, read-out: Inhibitory activity against proliferation (cell survival rate) K562
How it was run: as §1

SU-DHL6 = experiment: Inhibition of tumor cell proliferation, CellTiter-Glo, SU-DHL6; format: cell-based; conditions: compound concentration 50 μM, 72 hours; for cell survival rate (% of control) at 50 µM: Homo sapiens, SU-DHL-6, read-out: Inhibitory activity against proliferation (cell survival rate) SU-DHL6
How it was run: as §1

RPMI-8226 = experiment: Inhibition of tumor cell proliferation, CellTiter-Glo, RPMI-8226; format: cell-based; conditions: compound concentration 50 μM, 72 hours; for cell survival rate (% of control) at 50 µM: Homo sapiens, RPMI-8226, read-out: Inhibitory activity against proliferation (cell survival rate) RPMI-8226
How it was run: as §1

[1] = GST-LC3B 180 nM, FITC-labeled peptide 18 nM, 25° C.

Compound | IC50 (LC3B; [1]) [µM] | Inhibitory activity against proliferation (cell survival rate) MDA-MB-453 (MDA-MB-453) | Inhibitory activity against proliferation (cell survival rate) BxPC-3 (BxPC-3) | Inhibitory activity against proliferation (cell survival rate) A549 (A549) | Inhibitory activity against proliferation (cell survival rate) K562 (K562) | Inhibitory activity against proliferation (cell survival rate) SU-DHL6 (SU-DHL6) | Inhibitory activity against proliferation (cell survival rate) RPMI-8226 (RPMI-8226) | IC50 (LC3B) [µM] | cell survival rate (%) at 50 µM (MDA-MB-453) [%] | cell survival rate (%) at 50 µM (BxPC-3) [%] | cell survival rate (% of control) at 50 µM (A549) [%] | cell survival rate (%) at 50 µM (K562) [%] | cell survival rate (% of control) at 50 µM (SU-DHL6) [%] | cell survival rate (% of control) at 50 µM (RPMI-8226) [%]
O=C1CCC(N2Cc3c(NC=C4C(=O)CC(c5ccc(C(F)(F)F)cc5)CC4=O)cccc3C2=O)C(=O)N1 (stereo not drawn) [Compound 21] | < 3 | + (60≤survival rate (%)<90) | + (60≤survival rate (%)<90) | ++ (30<survival rate (%)≤60) | ++ (30<survival rate (%)≤60) | + (60≤survival rate (%)<90) | + (60≤survival rate (%)<90) | – | – | – | – | – | – | –
O=C1CCC(N2Cc3c(NC=C4C(=O)CC(c5c(Cl)ccc6[nH]ccc56)CC4=O)cccc3C2=O)C(=O)N1 (stereo not drawn) [Compound 152] | < 3 | ++ (30<survival rate (%)≤60) | ++ (30<survival rate (%)≤60) | +++ (survival rate (%)≤30) | +++ (survival rate (%)≤30) | +++ (survival rate (%)≤30) | +++ (survival rate (%)≤30) | – | – | – | – | – | – | –
O=C1CCC(N2Cc3c(NC(=O)COCCNC=C4C(=O)CC(c5ccccc5)CC4=O)cccc3C2=O)C(=O)N1 (stereo not drawn) [Compound 48] | 100 to 1000 | +++ (survival rate (%)≤30) | + (60≤survival rate (%)<90) | +++ (survival rate (%)≤30) | +++ (survival rate (%)≤30) | +++ (survival rate (%)≤30) | +++ (survival rate (%)≤30) | – | – | – | – | – | – | –
O=C1CCC(N2Cc3c(NC=C4C(=O)CC(c5cccc(Cl)c5F)CC4=O)cccc3C2=O)C(=O)N1 (stereo not drawn) [Compound 146] | < 3 | +++ (survival rate (%)≤30) | + (60≤survival rate (%)<90) | + (60≤survival rate (%)<90) | +++ (survival rate (%)≤30) | +++ (survival rate (%)≤30) | +++ (survival rate (%)≤30) | – | – | – | – | – | – | –
Cc1ccc(C2CC(=O)C(=CNc3cccc4c3CN(C3CCC(=O)NC3=O)C4=O)C(=O)C2)c(Br)c1 (stereo not drawn) [Compound 20] | < 3 | + (60≤survival rate (%)<90) | + (60≤survival rate (%)<90) | ++ (30<survival rate (%)≤60) | ++ (30<survival rate (%)≤60) | ++ (30<survival rate (%)≤60) | + (60≤survival rate (%)<90) | – | – | – | – | – | – | –
CCCNC(=O)C1CC(=O)C(=CNc2cccc3c2CN(C2CCC(=O)NC2=O)C3=O)C(=O)C1 (stereo not drawn) [Compound 114] | – | – | – | – | – | – | – | 100 to 1000 | 60 to 90 | 60 to 90 | 30 to 60 | 30 to 60 | 30 to 60 | 60 to 90
C[C@@H](CC(=O)Nc1cccc2c1CN(C1CCC(=O)NC1=O)C2=O)NC=C1C(=O)CC(c2ccccc2)CC1=O (stereo partly drawn) [Compound 44] | 100 to 1000 | + (60≤survival rate (%)<90) | + (60≤survival rate (%)<90) | +++ (survival rate (%)≤30) | +++ (survival rate (%)≤30) | +++ (survival rate (%)≤30) | +++ (survival rate (%)≤30) | – | – | – | – | – | – | –
O=C1CCC(N2Cc3c(NC=C4C(=O)CC(c5c(C(F)(F)F)ccc(Cl)c5Cl)CC4=O)cccc3C2=O)C(=O)N1 (stereo not drawn) [Compound 141] | < 3 | +++ (survival rate (%)≤30) | + (60≤survival rate (%)<90) | +++ (survival rate (%)≤30) | ++ (30<survival rate (%)≤60) | +++ (survival rate (%)≤30) | ++ (30<survival rate (%)≤60) | – | – | – | – | – | – | –
COc1cc(Br)c(C2CC(=O)C(=CNc3cccc4c3CN(C3CCC(=O)NC3=O)C4=O)C(=O)C2)cc1OC (stereo not drawn) [Compound 143] | < 3 | +++ (survival rate (%)≤30) | + (60≤survival rate (%)<90) | +++ (survival rate (%)≤30) | ++ (30<survival rate (%)≤60) | +++ (survival rate (%)≤30) | ++ (30<survival rate (%)≤60) | – | – | – | – | – | – | –
CC(C)[C@H](NC=C1C(=O)CC(c2ccccc2)CC1=O)C(=O)N[C@@H](CCCNC(N)=O)C(=O)Nc1cccc2c1CN(C1CCC(=O)NC1=O)C2=O (stereo partly drawn) [Compound 59] | 100 to 1000 | + (60≤survival rate (%)<90) | ++ (30<survival rate (%)≤60) | +++ (survival rate (%)≤30) | +++ (survival rate (%)≤30) | +++ (survival rate (%)≤30) | +++ (survival rate (%)≤30) | – | – | – | – | – | – | –
O=C1CCC(N2Cc3c(NC(=O)c4ccc(NC=C5C(=O)CC(c6ccccc6)CC5=O)cc4)cccc3C2=O)C(=O)N1 (stereo not drawn) [Compound 50] | 15 to 100 | + (60≤survival rate (%)<90) | + (60≤survival rate (%)<90) | + (60≤survival rate (%)<90) | + (60≤survival rate (%)<90) | +++ (survival rate (%)≤30) | ++ (30<survival rate (%)≤60) | – | – | – | – | – | – | –
O=C1CC(c2ccccc2)CC(=O)C1=CNCCN1CCN(C(=O)N2C(=O)CCC(N3C(=O)c4ccccc4C3=O)C2=O)CC1 (stereo not drawn) [Compound 101] | 15 to 100 | ++ (30<survival rate (%)≤60) | + (60≤survival rate (%)<90) | +++ (survival rate (%)≤30) | +++ (survival rate (%)≤30) | ++ (30<survival rate (%)≤60) | +++ (survival rate (%)≤30) | – | – | – | – | – | – | –
O=C1CCC(N2Cc3c(NC=C4C(=O)CC(c5ccc(F)cc5)CC4=O)cccc3C2=O)C(=O)N1 (stereo not drawn) [Compound 19] | < 3 | ++ (30<survival rate (%)≤60) | ++ (30<survival rate (%)≤60) | + (60≤survival rate (%)<90) | ++ (30<survival rate (%)≤60) | + (60≤survival rate (%)<90) | ++ (30<survival rate (%)≤60) | – | – | – | – | – | – | –
O=C1CCC(N2Cc3c(NC=C4C(=O)CC(c5ccccc5N5CCOCC5)CC4=O)cccc3C2=O)C(=O)N1 (stereo not drawn) [Compound 155] | < 3 | +++ (survival rate (%)≤30) | + (60≤survival rate (%)<90) | +++ (survival rate (%)≤30) | ++ (30<survival rate (%)≤60) | +++ (survival rate (%)≤30) | ++ (30<survival rate (%)≤60) | – | – | – | – | – | – | –
O=C1CCC(N2Cc3c(NC(=O)CN4CCN(CCNC=C5C(=O)CC(c6ccccc6Br)CC5=O)CC4)cccc3C2=O)C(=O)N1 (stereo not drawn) [Compound 157] | – | – | – | – | – | – | – | < 3 | 30 to 60 | 30 to 60 | ≤ 30 | ≤ 30 | ≤ 30 | ≤ 30
